According to patent US20020071842A1, “Soluble CD1 compositions and uses thereof” (priority 2000, published 2002):

Columns and labels:
[1] = system: 14S.10.C hybridoma; test: Plate-bound mCD1d fusion protein hybridoma stimulation assay (IL-2 ELISA); format: cell-based, mouse; conditions: 14S.10 C diverse TCR hybridoma; plate-bound mCD1d-IgGFc2a fusion protein preincubated with lipid antigen
Outline: (§1)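 Fusion protein (400-600 ng/well) captured on protein A plates; lipid added in PBS pH 7.2, 40:1 default ratio; 24-48 hr 37° C; washed; hybridomas 1×10^5/well, 16-20 hr 37° C; IL-2 ELISA vs standard curve. Some wells: anti-mCD1d 19G11 at 20 μg/ml final.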

[2] = system: KT/7 hybridoma; test: as above; format: cell-based, mouse; conditions: KT/7 NKT hybridoma; plate-bound mCD1d-IgGFc2a fusion protein preincubated with lipid antigen
Outline: as §1

[3] = system: 24.7.C hybridoma; test: as above; format: cell-based, mouse; conditions: 24 7.C NKT hybridoma; plate-bound mCD1d-IgGFc2a fusion protein preincubated with lipid antigen
Outline: as §1

[4] = system: KT/22 hybridoma; test: as above; format: cell-based, mouse; conditions: KT/22 NKT hybridoma; plate-bound mCD1d-IgGFc2a fusion protein preincubated with lipid antigen
Outline: as §1

[5] = system: 14S.15.A hybridoma; test: as above; format: cell-based, mouse; conditions: 14S.15.A diverse TCR hybridoma; plate-bound mCD1d-IgGFc2a fusion protein preincubated with lipid antigen
Outline: as §1

[6] = system: KT/12 hybridoma; test: as above; format: cell-based, mouse; conditions: KT/12 NKT hybridoma; plate-bound mCD1d-IgGFc2a fusion protein preincubated with lipid antigen
Outline: as §1

[7] = system: Vβ/9 hybridoma; test: as above; format: cell-based, mouse; conditions: Vβ/9 NKT hybridoma; plate-bound mCD1d-IgGFc2a fusion protein preincubated with lipid antigen
Outline: as §1

[8] = system: 24.9.E hybridoma; test: as above; format: cell-based, mouse; conditions: 24.9 E NKT hybridoma; plate-bound mCD1d-IgGFc2a fusion protein preincubated with lipid antigen
Outline: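 IL-2 (pg/ml) by sandwich ELISA, regressed on a murine IL-2 standard curve, reports stimulation of hybridomas (1×10^5/well, 16-20 hr, 37° C) on immobilized mCD1d fusion protein pre-pulsed with lipid, 40:1 molar ratio by default, 24-48 hr at 37° C.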

[9] = system: KT/23 hybridoma; test: as above; format: cell-based, mouse; conditions: KT/23 NKT hybridoma; plate-bound mCD1d-IgGFc2a fusion protein preincubated with lipid antigen
Outline: as §1

[10] = system: XV19 hybridoma; test: as above; format: cell-based, mouse; conditions: XV19 diverse TCR hybridoma; plate-bound mCD1d-IgGFc2a fusion protein preincubated with lipid antigen
Outline: as §1

[11] = system: 14S.7.N hybridoma; test: as above; format: cell-based, mouse; conditions: 14S.7.N diverse TCR hybridoma; plate-bound mCD1d-IgGFc2a fusion protein preincubated with lipid antigen
Outline: as §1

[12] = system: VII68 hybridoma; test: as above; format: cell-based, mouse; conditions: VII68 diverse TCR hybridoma; plate-bound mCD1d-IgGFc2a fusion protein preincubated with lipid antigen
Outline: as §1

[13] = system: XV104 hybridoma; test: as above; format: cell-based, mouse; conditions: XV104 diverse TCR hybridoma; plate-bound mCD1d-IgGFc2a fusion protein preincubated with lipid antigen
Outline: as §1

[14] = system: VIII24 hybridoma; test: as above; format: cell-based, mouse; conditions: VIII24 diverse TCR hybridoma; plate-bound mCD1d-IgGFc2a fusion protein preincubated with lipid antigen
Outline: as §1

[15] = system: 14S.6.A hybridoma; test: as above; format: cell-based, mouse; conditions: 14S.6.A diverse TCR hybridoma; plate-bound mCD1d-IgGFc2a fusion protein preincubated with lipid antigen
Outline: as §1

[16] = system: DN32D3 hybridoma; test: as above; format: cell-based, mouse; conditions: DN32D3 NKT hybridoma; plate-bound mCD1d-IgGFc2a fusion protein preincubated with lipid antigen
Outline: as §1

[17] = system: 24.8.A hybridoma; test: as above; format: cell-based, mouse; conditions: 24.8 A NKT hybridoma; plate-bound mCD1d-IgGFc2a fusion protein preincubated with lipid antigen
Outline: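 Protein A plates were loaded with 400-600 ng/well mCD1d fusion protein, then given lipid antigen (40:1 molar ratio to fusion protein unless specified) in PBS pH 7.2 for 24-48 h at 37 °C. After washing, 1×10^5 hybridoma cells/well were added for 16-20 h at 37 °C. Secreted IL-2 measured by sandwich ELISA against a murine IL-2 standard curve.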

[18] = system: human CD1d-restricted T cell clones; test: Flow cytometric staining with lipid treated multimerized CD1d-Fc aggregates; format: cell-based; conditions: flow cytometry; human CD1d-Fc/Alexa 488 protein A aggregate, 40:1 lipid to fusion protein, compared with DMSO alone
Method: To facilitate binding to CD1 specific T cells for detection by flow cytometry, a highly multimerized form of the CD1d fusion protein was formed using fluorescently labeled protein A molecules. Protein A molecules spontaneously associate in solution at neutral pH with immunoglobulin Fc regions, forming complexes containing four Fc molecules and two protein A molecules (4+2 complexes, reference 2). The human CD1d-Fc fusion protein was incubated with Alexa 488 dye labeled protein A, and the 4+2 complexes purified by size exclusion chromatography on a Pharmacia Superose 6 column using PBS pH 7.2 as a running buffer. The purified 4+2 aggregates were concentrated to 100 μg/ml with ovalbumin as a carrier protein. The CD1d-Fc aggregate was then pre-incubated for 24 to 48 hours at 37° C. with antigenic glycolipids dissolved in DMSO at a 40:1 molar ratio of lipid to fusion protein, or with an equivalent volume of DMSO alone as a negative control. The T cell staining was performed at room temperature or 4° C. for 20 min, at a concentration of 40 μg/ml of the lipid or control treated CD1d-Fc aggregate.
To facilitate binding to CD1 specific T cells for detection by flow cytometry, a highly multimerized form of the CD1d fusion protein is formed using fluorescently labeled protein A molecules. Protein A molecules spontaneously associate in solution at neutral pH with immunoglobulin Fc regions, forming complexes containing four Fc molecules and two protein A molecules (4+2 complexes, Langone, J.J. et al, Molec. and Cell. Biochem, 65(2):159-70 (1985)). The human CD1d-Fc fusion protein was incubated with Alexa 488-dye labeled protein A, and the 4+2 complexes purified by size exclusion chromatography on a Phannacia Superose 6 column using PBS pH 7.2 as a running buffer. The purified 4+2 aggregates are concentrated to 100 μg/ml with ovalbumin as a carrier protein. The CD1d-Fc aggregate is then pre-incubated for 24 to 48 hours at 37° C. with antigenic glycolipids dissolved in DMSO at a 40:1 molar ratio of lipid to fusion protein, or with an equivalent volume of DMSO alone as a negative control. The T cell staining is performed at room temperature or 4° C. for 20 min, at a concentration of 40 μg/ml of the lipid or control treated CD1d-Fc aggregate.
Flow cytometric analysis of a CD1d-restricted T cell clone stained with the multimerized CD1d-Fc fusion protein (abbreviated as “hd(8)-fl”) was performed as follows. Staining with CD1d-Fc treated with lipid antigens dissolved in DMSO was compared with CD1d-Fc treated with DMSO alone as a negative control. The specific lipid antigen used were: aGalCer is α-galactosyl ceramide (KRN7000); aGlcCer is α-glucosyl ceramide; aManCer is α-mannosyl ceramide; bGalCer is β-galactosyl ceramide; Cer is ceramide (acylphytosphingolipid).
Flow cytometric analysis of a series of human T cell clones stained with the multimerized CD1d-Fc fusion protein, treated with α-GalCer or DMSO alone also was performed, including staining of two different CD1d-restricted (“NKT”) T cell clones DN2.B9 and DN1.10B3. Four other T cell clones that are not CD1d-restricted also were stained.

Substance | IL-2 secretion [1] | IL-2 secretion [2] | IL-2 secretion [3] | IL-2 secretion [4] | IL-2 secretion [5] | IL-2 secretion [6] | IL-2 secretion [7] | IL-2 secretion [8] | IL-2 secretion [9] | IL-2 secretion [10] | IL-2 secretion [11] | IL-2 secretion [12] | IL-2 secretion [13] | IL-2 secretion [14] | IL-2 secretion [15] | IL-2 secretion [16] | IL-2 secretion [17] | staining of CD1d-restricted T cell clones by lipid treated CD1d-Fc aggregate [18]
sphingomyelin | 0 (A “0” indicates a mean of less than 50 pg/ml IL-2 was secreted) | 0 (A “0” indicates a mean of less than 50 pg/ml IL-2 was secreted) | 0 (A “0” indicates a mean of less than 50 pg/ml IL-2 was secreted) | 0 (A “0” indicates a mean of less than 50 pg/ml IL-2 was secreted) | + (“+” indicates 50-250 pg/ml) | 0 (A “0” indicates a mean of less than 50 pg/ml IL-2 was secreted) | 0 (A “0” indicates a mean of less than 50 pg/ml IL-2 was secreted) | 0 (A “0” indicates a mean of less than 50 pg/ml IL-2 was secreted) | 0 (A “0” indicates a mean of less than 50 pg/ml IL-2 was secreted) | 0 (A “0” indicates a mean of less than 50 pg/ml IL-2 was secreted) | 0 (A “0” indicates a mean of less than 50 pg/ml IL-2 was secreted) | 0 (A “0” indicates a mean of less than 50 pg/ml IL-2 was secreted) | 0 (A “0” indicates a mean of less than 50 pg/ml IL-2 was secreted) | 0 (A “0” indicates a mean of less than 50 pg/ml IL-2 was secreted) | 0 (A “0” indicates a mean of less than 50 pg/ml IL-2 was secreted) | 0 (A “0” indicates a mean of less than 50 pg/ml IL-2 was secreted) | + (“+” indicates 50-250 pg/ml) | –
α-glucosyl ceramide [α-GlcCer] | – | – | – | – | – | – | – | – | – | – | – | – | – | – | – | – | – | positive staining
α-mannosyl ceramide [α-ManCer] | – | – | – | – | – | – | – | – | – | – | – | – | – | – | – | – | – | did not stain above background levels
